Structures are written as SMILES.

The values that follow come from paper PMC6522981, “Structure-based design generated novel hydroxamic acid based preferential HDAC6 lead inhibitor with on-target cytotoxic activity against primary choroid plexus carcinoma” (Journal of Enzyme Inhibition and Medicinal Chemistry, 2019).

One data set concerns the target T1, human HDAC1 (Homo sapiens, UniProt Q13547).
T1 construct: purchased BPS Bioscience 50051
Nature of the data set: HDAC1 inhibitor enzymatic assay, % inhibition at fixed concentration (BPS Bioscience, fluorogenic). The format is biochemical. The settings on record: read-out: %inhibition of HDACs at 10µM of test compound HDAC1; 10 µM compound; mean of two replicates.

Another data set has as its target T2, human HDAC2 (Homo sapiens, UniProt Q92769).
T2 construct: purchased BPS Bioscience 50002
Nature of the data set: HDAC2 inhibitor enzymatic assay, % inhibition at fixed concentration. The format is biochemical. The settings on record: read-out: %inhibition of HDACs at 10µM of test compound HDAC2; 10 µM compound; mean of two replicates.

The next data set has as its target T3, human HDAC8 (Homo sapiens, UniProt Q9BY41).
T3 construct: purchased BPS Bioscience 50008
T3 sequence (Q9BY41 1-377): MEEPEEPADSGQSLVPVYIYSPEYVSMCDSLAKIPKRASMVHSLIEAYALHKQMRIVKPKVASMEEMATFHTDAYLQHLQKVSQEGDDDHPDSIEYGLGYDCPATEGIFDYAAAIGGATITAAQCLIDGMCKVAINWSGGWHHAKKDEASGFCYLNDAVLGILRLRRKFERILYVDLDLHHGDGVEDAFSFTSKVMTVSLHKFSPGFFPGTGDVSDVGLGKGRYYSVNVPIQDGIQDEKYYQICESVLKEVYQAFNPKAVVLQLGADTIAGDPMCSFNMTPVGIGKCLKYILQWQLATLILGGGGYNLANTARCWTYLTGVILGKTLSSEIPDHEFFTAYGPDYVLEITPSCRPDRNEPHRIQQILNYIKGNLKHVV
Nature of the data set: HDAC8 inhibitor enzymatic assay, % inhibition at fixed concentration. The format is biochemical. Particulars: read-out: %inhibition of HDACs at 10µM of test compound HDAC8; 10 µM compound.

A further data set deals with T4, human HDAC6 (Homo sapiens, UniProt Q9UBN7).
T4 sequence (Q9UBN7 1-1215): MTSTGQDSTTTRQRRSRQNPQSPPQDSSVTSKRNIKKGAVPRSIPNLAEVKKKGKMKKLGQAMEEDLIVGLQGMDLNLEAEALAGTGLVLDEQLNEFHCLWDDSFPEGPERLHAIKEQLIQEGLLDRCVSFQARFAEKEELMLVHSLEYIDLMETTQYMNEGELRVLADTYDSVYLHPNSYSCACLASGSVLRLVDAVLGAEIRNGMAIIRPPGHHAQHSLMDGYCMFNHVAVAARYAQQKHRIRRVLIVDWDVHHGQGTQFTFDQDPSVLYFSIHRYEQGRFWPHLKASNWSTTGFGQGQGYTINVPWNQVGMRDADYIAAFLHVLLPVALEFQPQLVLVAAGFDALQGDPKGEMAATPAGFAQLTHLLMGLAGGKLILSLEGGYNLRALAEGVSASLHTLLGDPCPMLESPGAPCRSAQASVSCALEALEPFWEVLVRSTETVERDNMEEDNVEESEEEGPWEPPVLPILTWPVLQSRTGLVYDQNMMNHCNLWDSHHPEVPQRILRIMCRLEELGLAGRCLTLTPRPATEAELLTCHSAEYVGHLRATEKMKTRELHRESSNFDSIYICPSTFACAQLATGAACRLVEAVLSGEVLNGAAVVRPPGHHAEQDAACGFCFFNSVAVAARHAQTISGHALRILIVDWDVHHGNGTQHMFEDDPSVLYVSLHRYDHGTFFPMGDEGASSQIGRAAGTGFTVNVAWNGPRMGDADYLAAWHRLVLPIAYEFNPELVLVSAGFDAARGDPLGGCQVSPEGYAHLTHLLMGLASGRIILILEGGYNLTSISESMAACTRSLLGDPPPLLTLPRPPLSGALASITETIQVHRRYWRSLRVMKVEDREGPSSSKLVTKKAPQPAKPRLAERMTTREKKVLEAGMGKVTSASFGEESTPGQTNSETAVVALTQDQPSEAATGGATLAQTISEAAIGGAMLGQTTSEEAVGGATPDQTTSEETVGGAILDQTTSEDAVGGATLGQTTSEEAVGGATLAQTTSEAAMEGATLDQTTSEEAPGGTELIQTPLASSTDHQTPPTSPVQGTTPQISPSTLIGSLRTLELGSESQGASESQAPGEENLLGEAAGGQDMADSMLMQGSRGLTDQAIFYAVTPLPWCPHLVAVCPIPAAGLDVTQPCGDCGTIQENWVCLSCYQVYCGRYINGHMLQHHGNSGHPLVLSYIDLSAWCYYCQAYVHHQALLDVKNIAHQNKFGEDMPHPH
The experiment in a line: HDAC6 inhibitor enzymatic assay, % inhibition at fixed concentration. The settings on record: read-out: %inhibition of HDACs at 10µM of test compound HDAC6.

Data set [1] concerns CCHE-45 cells (primary choroid plexus carcinoma). The experiment in a line: Cytotoxicity assay using xCELLigence system. The settings on record: xCELLigence, 96 h exposure; mean of three replicates; read-out: CCHE-45 IC50 (µM)±SEM. The format is cell-based. The procedure: Established primary Choroid plexus carcinoma (CCHE-45) were cultured as previously described, in RPMI-1640 (Lonza, BE-12-702F) supplemented with 10% Fetal Bovine Serum (FBS, Gibco, 12483–020) and 100 U/ml penicillin and 100 µg/ml streptomycin (Lonza, DE17-602F). Cells were maintained at 37 °C in a 5% CO2 humidified atmosphere.
Cytotoxicity assay by the xCELLigence system was performed using RTCA xCELLigence DP system (ACEA Biosciences, Inc., San Diego, CA, USA) as per manufacturer’s instructions https://www.aceabio.com/products/rtca-dp/, https://www.aceabio.com/products/rtca-sp[65–68]. In brief, after setting up the instruments and blanking the wells with media, CCHE-45 cells were seeded into the 96 well E-plate (ACEA Biosciences) with a density of 20,000 cells/well. Attachment and growth of the cells were monitored every 1 h. Approximately 24 h after seeding, when the cells were in the log growth phase, the cells were exposed to a range of test compound 10a concentrations (3.125, 6.25, 12.5, 25, 50, 100, 200, 400) µM for 96 h. Controls received either medium alone, or medium + DMSO with a final concentration below of 0.5%. For each concentration, duplicates were tested. Experiments were conducted in three biological repeats. Results were analyzed using the RTCA software (Version 2.0). Data was exported and average IC50 value was analyzed.
• Based on previous pilot experiment, the highest SK114 conc. (100µM)
72hrs, thus this experiment was performed with higher concentration
• Cells were incubated with the drug for 96hrs
• Experiment was done in technical duplicates

T1 sequence (Q13547 whole entry): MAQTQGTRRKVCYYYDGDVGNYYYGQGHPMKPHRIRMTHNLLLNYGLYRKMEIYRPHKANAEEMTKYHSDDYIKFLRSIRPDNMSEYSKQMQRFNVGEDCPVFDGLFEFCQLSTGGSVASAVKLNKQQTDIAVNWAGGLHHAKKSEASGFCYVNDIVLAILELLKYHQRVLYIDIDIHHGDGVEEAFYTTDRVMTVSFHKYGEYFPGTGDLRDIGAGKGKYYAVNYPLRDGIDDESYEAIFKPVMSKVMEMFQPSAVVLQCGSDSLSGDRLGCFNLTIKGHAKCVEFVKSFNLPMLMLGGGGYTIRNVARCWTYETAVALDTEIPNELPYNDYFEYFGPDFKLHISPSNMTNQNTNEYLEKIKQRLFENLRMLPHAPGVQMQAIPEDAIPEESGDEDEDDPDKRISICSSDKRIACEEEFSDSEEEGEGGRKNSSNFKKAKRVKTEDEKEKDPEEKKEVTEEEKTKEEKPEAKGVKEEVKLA
T2 sequence (Q92769 whole entry): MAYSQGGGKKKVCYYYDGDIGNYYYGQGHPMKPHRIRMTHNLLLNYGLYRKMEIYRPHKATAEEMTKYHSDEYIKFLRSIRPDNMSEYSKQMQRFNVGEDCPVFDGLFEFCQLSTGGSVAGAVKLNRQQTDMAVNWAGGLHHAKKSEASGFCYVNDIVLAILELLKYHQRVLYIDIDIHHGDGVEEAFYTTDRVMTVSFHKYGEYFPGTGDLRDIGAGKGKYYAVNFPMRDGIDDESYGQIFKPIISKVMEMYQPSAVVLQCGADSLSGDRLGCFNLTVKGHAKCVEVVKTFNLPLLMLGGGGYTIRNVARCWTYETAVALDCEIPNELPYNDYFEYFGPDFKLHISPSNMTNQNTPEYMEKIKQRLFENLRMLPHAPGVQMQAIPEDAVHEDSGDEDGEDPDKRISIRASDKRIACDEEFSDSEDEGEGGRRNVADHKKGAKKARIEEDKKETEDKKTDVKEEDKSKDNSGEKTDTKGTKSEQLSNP

One may read the inhibition as the relative decrease from the control value, in per cent. Broadly, the melting point is the temperature, or range, at which the solid turns liquid. Take `O=C(CSc1nc2ccccc2n1Cc1ccccc1)NO` [Compound 6a, 2-((1-benzyl-1H-benzo[d]imidazol-2-yl)thio)-N-hydroxyacetamide]: the melting point worked out at 97 °C. The inhibition at 10 µM on human HDAC1 was determined as 6%. Moreover, at human HDAC2, the inhibition at 10 µM was 5%. In addition, on human HDAC8, the inhibition at 10 µM is 14%. Also, the inhibition at 10 µM at human HDAC6 is 2%.

Molecule `O=C(CSc1nc2ccccc2n1Cc1ccc(Br)cc1)NO` [Compound 6b, 2-((1–(4-bromobenzyl)-1H-benzo[d]imidazol-2-yl)thio)-N-hydroxyacetamide] had a melting point of 167 °C. The inhibition at 10 µM on human HDAC1 turned out to be 18%. Besides, the inhibition at 10 µM on human HDAC2 was 6%. The inhibition at 10 µM on human HDAC8 amounted to 12%. The inhibition at 10 µM at human HDAC6 stood at 6%.

`O=C(CSc1nc2ccccc2n1CC1CCCCC1)NO` [Compound 6c, 2-((1-(Cyclohexylmethyl)-1H-benzo[d]imidazol-2-yl)thio)-N-hydroxyacetamide]: the melting point was determined as 160 °C. Besides, at human HDAC1, the inhibition at 10 µM amounted to 13%. The inhibition at 10 µM at human HDAC2 was 7%. Moreover, the inhibition at 10 µM on human HDAC8 was 14%. In addition, at human HDAC6, the inhibition at 10 µM was 2%.

Take `O=C(CSc1nc2ccccc2n1CCC1CCCCC1)NO` [Compound 6d, 2-((1–(2-cyclohexylethyl)-1H-benzo[d]imidazol-2-yl)thio)-N-hydroxyacetamide]: the melting point was 157 °C. Further, the inhibition at 10 µM at human HDAC1 turned out to be 14%. Besides, the inhibition at 10 µM on human HDAC2 came to 3%. Besides, the inhibition at 10 µM on human HDAC8 was determined as 1%. The inhibition at 10 µM on human HDAC6 was determined as 2%.

Turning to `O=C(CCCSc1nc2ccccc2n1Cc1ccc(Br)cc1)NO` [Compound 10b, 4-((1–(4-bromobenzyl)-1H-benzo[d]imidazol-2-yl)thio)-N-hydroxybutanamide], the melting point came out at 153 °C. Further, the inhibition at 10 µM at human HDAC1 was determined as 9%. Moreover, the inhibition at 10 µM at human HDAC2 was 9%. Further, the inhibition at 10 µM on human HDAC8 amounted to 1%. Further, the inhibition at 10 µM on human HDAC6 is 12%.

In the case of `O=C(CCCSc1nc2ccccc2n1CC1CCCCC1)NO` [Compound 10c, 4-((1-(Cyclohexylmethyl)-1H-benzo[d]imidazol-2-yl)thio)-N-hydroxybutanamide], the melting point is 149 °C. Also, the inhibition at 10 µM on human HDAC1 was determined as 9%. Further, the inhibition at 10 µM at human HDAC2 was found to be 8%. Moreover, the inhibition at 10 µM at human HDAC8 was 12%. In addition, the inhibition at 10 µM at human HDAC6 turned out to be 14%.

On to `O=C(CCCSc1nc2ccccc2n1CCC1CCCCC1)NO` [Compound 10d, 4-((1–(2-cyclohexylethyl)-1H-benzo[d]imidazol-2-yl)thio)-N-hydroxybutanamide], for which the melting point is 132 °C. The inhibition at 10 µM at human HDAC1 turned out to be 11%. For the same molecule, the inhibition at 10 µM on human HDAC2 is 8%. Moreover, on human HDAC8, the inhibition at 10 µM was determined as 10%. On human HDAC6, the inhibition at 10 µM stood at 35%.

A word on the IC50: it is the concentration needed to halve the response being measured. For `O=C(CCCCCCC(=O)Nc1ccc([C@H]2O[C@@H](CSc3nc(-c4ccccc4)c(-c4ccccc4)o3)C[C@@H](c3ccc(CO)cc3)O2)cc1)NO` [Tubacin, reference compound], the concentration for half-maximal inhibition (IC50) in data set [1] was 20 ± 10.2 µM.
